Source: patent US12544375B2, “Small molecule therapeutic for parkinson's disease paired with a biomarker of therapeutic activity” (The Board of Trustees of the Leland Stanford Junior …, priority 2019, dated 2026)

Experiments:
[1] = tested on: healthy-1 or PD-2 fibroblasts; assay: Baseline mitochondrial reactive oxygen species, MitoSox staining; assay type: cell-based, human; settings: 10 μM for 30 hrs
Description: FIG. 8. Related to FIG. 2-4. Miro1 Reducer in Human Cell and Fly Models. (A) Fibroblasts from Healthy-1 and PD-2 were treated, lysed, and blotted as indicated. Band intensities are normalized to those of GAPDH from the same blots and compared to “Healthy-1, no treatment”. n=4 independent experiments. (B) Fibroblasts from PD-2 were treated and immunostained as indicated. The intensity was quantified for each cell across 264-320 cells from 3 independent experiments, compared to “no treatment”. (C) Fibroblasts were treated, immunoprecipitated (IPed) with anti-Miro1, and blotted as indicated. Similar results were observed twice. (D) Similar as in (C), fibroblasts were treated as indicated, and IPed with anti-Miro1. The GTPase activity of the IPed Miro1 protein was measured as described in Method. […] The MitoSox intensity was quantified for each cell across 106-161 cells from 3 coverslips. […] The TMRM intensity was measured for each cell across 48-60 cells from 3 independent experiments, and expressed as a fraction of the mean of “Healthy-1, no treatment”. […] The movement (the intensity of non-yellow) was quantified for each cell as described in (Tsai et al., 2014) across 22-31 cells from 3 transfections. […] (1) Left: The percentage of TH-positive iPSC-derived neurons out of total cells (Dapi-positive) is calculated after immunocytochemistry under 20× as described in FIG. 3. […]

Mitofusin (Marf) = assay: Flies fed compound, Mitofusin (Marf) Western blot; assay type: in vivo, fruit flies; settings: wild-type flies fed 250 μM for 7 days
Description: FIG. 2A-FIG. 2F. Miro1 Reducer Eliminates the Miro1 Defect in PD Fibroblasts. (FIG. 2A) Chemical properties of Miro1 Reducer. (FIG. 2B) Wild-type flies (w^1118) were fed with DMSO alone (0 μM Miro1 Reducer) or Miro1 Reducer in DMSO at 250 μM for 7 days, and lysed and blotted as indicated. The band intensities are normalized to those of Tubulin from the same blots. n=4. (FIG. 2C-FIG. 2E) Fibroblasts were treated, lysed, and blotted as indicated. (FIG. 2C) Band intensities are normalized to those of GAPDH from the same blots and compared to “Healthy-1, no treatment” except otherwise indicated. n=4. (FIG. 2D) Band intensities are normalized to those of ATP5β from the same blots and expressed as a percentage of the mean of “0 μM Miro1 Reducer with CCCP”. Mean±S.E.M is shown. n=3. (FIG. 2E) Band intensities are normalized to those of GAPDH from the same blots and compared to “Healthy-1, no CCCP, no MG132” except otherwise indicated. n=4. […] The Miro1 intensity is normalized to that of mito-dsRed from the same cell and quantified across 37-62 cells from 5 fields each transfection, 3 independent transfections. […]
We assessed the binding ability of 6,835,320 commercialized small molecules to one of the two atypical Rho GTPase domains of Miro1 (amino acids 411-592) (FIG. 6C) by a customized virtual screen using the artificial intelligence (AI) technology. […]

## O=C(Nc1ccc(Nc2cc(-n3ccnc3)ncn2)cc1)Nc1cccc(F)c1 [Miro1 Reducer]
[1]
  baseline mitochondrial reactive oxygen species levels (MitoSox): did not affect
Mitofusin (Marf)
  effect on OMM GTPase Mitofusin (Marf): did not significantly affect
